The text below walks through data of ChEMBL document CHEMBL1250488, “Structural and functional basis of resistance to neuraminidase inhibitors of influenza B viruses” (J Med Chem, 2010).

Experiment [1] in a line: Inhibition of Influenza B virus (B/Perth/211/2001) recombinant wild type neuraminidase expressed in Sf21 insect cells after 60 mins by MUNANA based assay.
Experiment [2] can be described thus: Inhibition of Influenza B virus (B/Perth/211/2001) wild type recombinant neuraminidase expressed in Sf21 insect cells preincubated for 30 mins measured after 60 mins by MUNANA based assay.
A short description of experiment [3]: Inhibition of Influenza B virus B/Gifu/11/2005 wild type neuraminidase expressed in Sf21 insect cells after 60 mins by MUNANA based assay.
Experiment [4] in a line: Inhibition of Influenza B virus B/Gifu/11/2005 wild type neuraminidase expressed in Sf21 insect cells preincubated for 30 mins measured after 60 mins by MUNANA based assay.

Each structure is given as a SMILES string.

Usually Ki stands for the dissociation constant of the complex between target and ligand, obtained from inhibition or displacement. For orientation: IC50 means the concentration that inhibits the measured activity by half. Take `CCC(CC)[C@H](NC(C)=O)[C@@H]1[C@H](O)[C@@H](C(=O)O)C[C@H]1NC(=N)N` [PERAMIVIR ANHYDROUS]: the Ki amounted to 1.2 nM in experiment [1], 0.6 nM in experiment [2], 0.7 nM in experiment [3] and 0.3 nM in experiment [4]. Further, the IC50 in experiment [2] was found to be 2.8 nM; in experiment [4] it was 2.1 nM.
As to `O=C(O)C1(F)O[C@H]([C@H](O)[C@H](O)CO)[C@H](O)[C@@H](O)C1F` (some centres not stated), the 50% inhibitory concentration (IC50) in experiment [1] came to 37700 nM.
